The text below walks through data of a melting point compilation (Tetko et al.; mined from patent text by program, amines drawn as free bases though some values may be those of a salt).

One may read the melting point as the temperature of the solid-liquid transition. `CC(C)OC(=O)c1cc(-n2c(=O)cc(C(F)(F)F)[nH]c2=O)c(F)cc1Cl` returned a melting point of 127 to 129 °C.
The same measure for `CSc1nc(CC2CCN(c3ccc(C(C)(C)C)cc3)CC2)nc(C(=O)NCC(=O)O)c1O`: 135 to 136 °C.
The compound `COC(=C(C)C#N)C(F)(F)F` gave a melting point of 68 to 76.5 °C.
`CC(=NC#N)N[C@@H]1c2cc(C#N)ccc2OC(C)(C)[C@H]1O` (relative stereo) displayed a melting point of 236 to 238 °C.
`Cc1cc(N)c([N+](=O)[O-])cc1NCCO` registered a melting point of 141 °C.
The same measure for `COC(=O)C(Cc1ccccc1)Oc1ccc2cc(CNC(=O)c3ccc(C4CCCCC4)cc3)ccc2c1Br` (configuration not stated): 160 to 161 °C.
The same measure for `CCOCc1nc2c(N)nc3ccccc3c2n1N1CCOCC1`: 223 to 224 °C; for `CC(n1ncnn1)C(F)(c1ccc(OC(F)(F)F)cc1)c1ccc(OC(F)(F)F)cc1` (configuration not stated): 68 to 70 °C; for `COc1ccc2[nH]c(=O)n(S(=O)(=O)c3ccc(Cl)cc3)c(=O)c2c1`: 192 to 194 °C.
For `Nc1nc2[nH]c(CCC#Cc3ccc(C(=O)N[C@@H](CCC(=O)O)C(=O)O)s3)cc2c(=O)[nH]1` the value was 196 to 197 °C.
As to `CC(=O)Oc1cc([N+](=O)[O-])cc([N+](=O)[O-])c1OC(C)=O`, the melting point is 115 to 117 °C.
For `CCOCN1C2=C(C(=O)CCC2)C(c2cccc([N+](=O)[O-])c2)C2=C1CCCC2=O` the value was 222 °C; for `COC(=O)CC[C@H]1CC[C@@H](n2c(C)nn(-c3ccc(C#N)cc3)c2=O)CC1`, 92 to 96 °C; for `CC(Br)c1ccc2onc(-c3ccc(Cl)cc3)c2c1` (configuration not stated), 111 to 116 °C.
For `O=S(=O)(CCCCl)c1ccc(Cl)cc1` the value was 69 to 72 °C; for `Cc1cccc(C)c1NC(=O)CN1CCN(CC(O)CC(c2ccc(F)cc2)c2ccc(F)cc2)C(C(N)=O)C1` (configuration not stated), 110 °C.
`CN1Cc2c(C#N)ncn2-c2ccc(Cl)cc2C1=O` had a melting point of 272 to 275 °C.
The same measure for `Fc1ccccc1COc1cccnc1NC(=S)Nc1ccc(Cl)cc1`: 141 °C; for `C=CCC(C#N)(c1ccc(F)cc1)c1ccccc1F` (configuration not stated): 215 to 219 °C.
For `CSC(Nc1cccnc1)=C(C#N)C#N` the value was 180 to 181 °C; for `O=[N+]([O-])c1cc2c(NCc3ccc4c(c3)OCO4)nc(-n3ccnc3)nc2s1`, 245 °C.
As to `CC(=O)N1CCN=C1Nc1ccnn1-c1cccc(C(F)(F)F)c1`, the melting point was 194 to 197 °C.
For `CC(C)c1nc2ccccc2c(-c2ccc(F)cc2)c1/C=C/I` the value was 129 to 131 °C; for `CN(C)C(=O)N[C@H]1CC[C@H](CCN2CCN(c3cccc(Cl)c3Cl)CC2)CC1`, 212 to 214 °C.
`COc1cc2c(cc1OC)[C@@H]1CN(C)CC[C@@H]1N=C2c1ccc(Cl)c(Cl)c1` (relative stereo): the melting point lay in the range of 183 to 184 °C.
The same measure for `CCCCCC(=O)OCCCOc1ccc(Nc2ccccc2)cc1`: 50 to 51 °C; for `O=C(O)CSc1cccc2c1S(=S)N=N2` (configuration not stated): 207 to 209 °C.
For `O=Cc1ccc(-c2ccccc2-c2nnn(C(c3ccccc3)(c3ccccc3)c3ccccc3)n2)cc1` the value was 147 to 149 °C; for `C=C(C)c1ccccc1C(=O)O`, 71.6 to 72.5 °C; for `O=C(O)CCCC(=O)N[C@@H](Cc1ccc(-c2ccccc2)cc1)C(=O)NCCCCNc1ncccn1`, 228 °C.
Compound `Nc1cccc(C(=O)N2CC3CC(CN(Cc4ccccc4)C3)C2)c1` gave a melting point of 178 °C.
The same measure for `COc1nccc(-c2c(-c3ccc(F)cc3)ncn2[C@H]2CC[C@H](O)CC2)n1`: 188 to 190 °C.
For `C#CCN1C(=O)COc2cc(F)c(-n3nc4n(c3=O)CCS4)cc21` the value was 211 to 213 °C; for `CN1CC2C3C=CC(C3)C2(c2cccc(O)c2)C1` (configuration not stated), 129 to 136 °C.
The same measure for `COc1ccccc1N1CCN(CCn2c(=O)[nH]c3ccsc3c2=O)CC1`: 222 to 223 °C.
In turn, `COc1cc2c(cc1Br)CC(SC)=NN=C2c1ccc([N+](=O)[O-])cc1` displayed a melting point of 225 to 227 °C.
For `CC(C)(C)c1ccc(CCCCN2CCC(C3(O)c4ccccc4CCc4ccccc43)CC2)cc1` the value was 99 to 101 °C; for `C[N+]1([O-])C(=O)C(F)N=C(c2ccccc2)c2cc(Cl)ccc21` (configuration not stated), 167 to 169 °C; for `Cc1ccc(S(=O)(=O)Oc2ccc(C(C)(C)C)cc2C(C)(C)C)cc1`, 81 °C.
The same measure for `CCC(=O)OC(C)c1ccc(-c2ccc(OCc3ccccc3)cc2)cc1` (single isomer, unassigned; (+)): 125 °C.
The same measure for `COC(=O)c1ncn2c1CN(C)C(=O)c1ccccc1-2`: 212 to 214 °C; for `CNC(=Nc1cccc(C(F)(F)F)c1)C(C)C`: 52 to 54 °C.
`C=C(C)C(=O)OCCc1ccc(-c2ccc(OC(=O)C(=C)C)cc2)cc1` yielded a melting point of 108 °C.
For `COc1cc(CNC(=O)c2cc3c(=O)n(CC4CCCCC4)c(=O)n(C)c3s2)ccn1` the value was 167 to 210 °C; for `O=C(Nc1ccc2c(c1)CCC2)C(=O)N1CCC(Cc2ccc(F)cc2)CC1`, 150 to 152 °C; for `O=C(CCC(=O)N1CCCCC1c1ccccc1)c1ccc2c(c1)CCNCC2` (configuration not stated), 114 °C.
Compound `CCS(=O)(=O)CCON=Cc1nn(-c2c(Cl)cc(C(F)(F)F)cc2Cl)c(N)c1S(C)=O` (configuration not stated) returned a melting point of 144 to 148 °C.
The same measure for `Cn1nc(-c2ccccc2Cl)nc1-c1ccc(Oc2ccc(C(F)(F)F)cn2)cc1Cl`: 104 to 108 °C; for `CN1CCC[C@H]1c1cnc(Cl)cc1P(C(C)(C)C)C(C)(C)C`: 125 to 127 °C; for `Cc1ccc(Cn2nc(CNC(=O)NC(C)(C)C)cc2-c2ccc(Cl)c(Cl)c2)cc1Cl`: 181 °C.
For `CCOC(C)c1ccc(OCCCN2CCC(c3noc4cc(F)ccc34)CC2)c(OC)c1` (configuration not stated) the value was 139 °C; for `c1cncc(-c2nc3ncccc3[nH]2)c1`, 133 to 135 °C; for `O=C(O)CCCCCC(=O)CCc1ccc(Cl)cc1`, 93 to 96 °C.
For `COc1ccc(C(=O)CCC(=O)O)cc1N` the value was 136 to 137 °C.
For the compound `O=C(OC1C2CN(Cc3ccccc3)CC1CN(C(=O)c1ccc(Cl)cc1)C2)c1ccccc1` (configuration not stated), the melting point amounted to 165 °C.
The same measure for `O=C(O)c1cccc(OCCF)c1OCCF`: 104 to 105 °C; for `N#Cc1ccc(C(=O)NCc2nn(-c3ccccc3Cl)c(-c3ccc(Cl)cc3)c2C#N)cc1`: 118 °C.
The same measure for `C(=Cc1ccnc2[nH]c3ccccc3c12)c1ccccc1`: above 220 °C; for `CC(C)(NC=O)c1cccc(C(F)(F)C(F)(F)c2ccccc2)c1`: 90 to 95 °C; for `CN(N)c1cnn(-c2cccc(C(F)(F)F)c2)c(=O)c1`: 125 to 127 °C.
The same measure for `O=[N+]([O-])c1cccc(-c2cc3c(O)ncnc3o2)c1`: above 300 °C; for `O=C(CC(=O)c1cccc(C(F)(F)F)c1NC(=O)C(F)F)Nc1nccs1`: 206 °C.
